Results taken from ChEMBL document CHEMBL6096642 (Eur J Med Chem, 2025).
Calls of active or inactive are those of the source. The rule behind the calls is not given here.

Key:
C2C12 [1] = assay: Effect on mitochondrial mass in mouse C2C12 cells at 25 to 50 uM incubated for 72 hrs by Mitotracker green based flow cytometric analysis; assay type: functional, cell-based; conditions: dose 25-50 µM
[2] = target: T1, Aldo-keto reductase family 1 member A1 (Rattus norvegicus, UniProt P51635); assay: Inhibition of rat kidney ALR1; assay type: tissue-based
T1 sequence (P51635 whole entry): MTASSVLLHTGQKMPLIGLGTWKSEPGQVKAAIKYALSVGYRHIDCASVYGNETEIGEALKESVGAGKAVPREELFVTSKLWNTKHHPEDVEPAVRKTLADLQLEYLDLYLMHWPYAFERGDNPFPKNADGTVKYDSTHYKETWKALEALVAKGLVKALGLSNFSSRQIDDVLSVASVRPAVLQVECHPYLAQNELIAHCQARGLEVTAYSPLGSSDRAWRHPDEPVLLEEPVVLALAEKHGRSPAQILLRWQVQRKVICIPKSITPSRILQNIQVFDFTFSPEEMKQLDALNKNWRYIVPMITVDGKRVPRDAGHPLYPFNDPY

[3] = target: T1, Aldo-keto reductase family 1 member A1; assay: Inhibition of male Wistar rat kidney ALR1 using D-glucuronate as substrate assessed as NADPH consumption by spectrophotometric analysis
[4] = target: Aldo-keto reductase family 1 member B1 (Rattus norvegicus, UniProt P07943); assay: Inhibition of male Wistar rat lens ALR2 using D,L-glyceraldehyde as substrate assessed as NADPH consumption by spectrophotometric analysis
Rattus norvegicus [5] = species on record: Rattus norvegicus; assay: Selectivity index, ratio of IC50 for male Wistar rat kidney ALR1 using D-glucuronate as substrate to IC50 for male Wistar rat lens ALR2 using D,L-glyceraldehyde as substrate
[6] = target: T2, Tyrosine-protein phosphatase non-receptor type 1 (Homo sapiens) (UniProt P18031); assay: (§1) Inhibition of polyhis-tagged recombinant human PTP1B (1 to 303 residues) extracted from Escherichia coli BL21 (DE3) pLysS using p-nitro-phenyl phosphate as substrate at 10 uM preincubated for 15 mins followed by substrate addition and measured after 15 mins by absorbance based analysis relative to control; conditions: time 30.0 min
T2 sequence (whole entry): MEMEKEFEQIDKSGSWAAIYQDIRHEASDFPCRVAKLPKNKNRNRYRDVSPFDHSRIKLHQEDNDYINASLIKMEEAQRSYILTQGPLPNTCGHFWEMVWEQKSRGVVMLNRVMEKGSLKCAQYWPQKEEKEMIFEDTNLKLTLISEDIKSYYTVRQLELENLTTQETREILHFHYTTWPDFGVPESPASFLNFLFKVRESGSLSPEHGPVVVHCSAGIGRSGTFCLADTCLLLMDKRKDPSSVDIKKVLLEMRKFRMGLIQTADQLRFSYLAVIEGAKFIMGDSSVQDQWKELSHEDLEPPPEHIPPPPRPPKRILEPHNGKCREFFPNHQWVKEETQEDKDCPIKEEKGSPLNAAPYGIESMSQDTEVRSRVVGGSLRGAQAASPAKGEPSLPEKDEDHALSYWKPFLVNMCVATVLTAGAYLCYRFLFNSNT

[7] = target: T2, Tyrosine-protein phosphatase non-receptor type 1 (Homo sapiens); assay: as §1, with “50” for “10”; conditions: time 30.0 min
[8] = target: T3, Tyrosine-protein phosphatase non-receptor type 1 (Homo sapiens, UniProt P18031); assay: Inhibition of polyhis-tagged recombinant human PTP1B (1 to 303 residues) extracted from Escherichia coli BL21 (DE3) pLysS using p-nitro-phenyl phosphate as substrate assessed as substrate hydrolysis by measuring p-nitrophenolate release by absorbance based analysis
T3 sequence (P18031 whole entry): T2 sequence (whole entry)

[9] = target: T4, Tyrosine-protein phosphatase non-receptor type 2 (Homo sapiens, UniProt P17706); assay: Inhibition of polyHis-tagged recombinant human TCPTP (1 to 415 residues) extracted from Escherichia coli BL21 (DE3) pLysS using p-nitro-phenyl phosphate as substrate assessed as substrate hydrolysis by measuring p-nitrophenolate release by absorbance based analysis
T4 sequence (P17706 whole entry): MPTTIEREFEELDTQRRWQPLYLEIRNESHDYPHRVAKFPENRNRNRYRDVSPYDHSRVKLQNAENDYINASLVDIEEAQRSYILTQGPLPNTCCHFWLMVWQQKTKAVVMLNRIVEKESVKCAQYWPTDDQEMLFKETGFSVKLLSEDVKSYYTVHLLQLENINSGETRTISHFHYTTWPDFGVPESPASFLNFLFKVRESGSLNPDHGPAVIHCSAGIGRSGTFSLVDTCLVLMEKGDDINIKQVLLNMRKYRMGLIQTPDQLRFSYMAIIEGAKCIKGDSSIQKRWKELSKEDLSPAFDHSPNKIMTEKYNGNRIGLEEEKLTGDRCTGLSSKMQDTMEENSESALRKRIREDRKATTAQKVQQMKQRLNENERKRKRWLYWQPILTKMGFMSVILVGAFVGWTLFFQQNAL

Homo sapiens = species on record: Homo sapiens; assay: Selectivity index, ratio of IC50 for polyHis-tagged recombinant human TCPTP (1 to 415 residues) extracted from Escherichia coli BL21 (DE3) pLysS using p-nitro-phenyl phosphate as substrate to IC50 for polyhis-tagged recombinant human PTP1B (1 to 303 residues) extracted from Escherichia coli BL21 (DE3) pLysS using p-nitro-phenyl phosphate as substrate
[10] = target: Aldo-keto reductase family 1 member B1 (Rattus norvegicus) (UniProt P07943); assay: Inhibition of male Wistar rat lens ALR2 using D,L-glyceraldehyde as substrate assessed as NADPH consumption at 10 uM by spectrophotometric analysis relative to control
[11] = target: Aldo-keto reductase family 1 member B1 (Rattus norvegicus) (UniProt P07943); assay: Inhibition of male Wistar rat lens ALR2 using D,L-glyceraldehyde as substrate assessed as NADPH consumption at 1 uM by spectrophotometric analysis relative to control
[12] = target: T2, Tyrosine-protein phosphatase non-receptor type 1 (Homo sapiens); assay: Irreversible inhibition of polyhis-tagged recombinant human PTP1B (1 to 303 residues) extracted from Escherichia coli BL21 (DE3) pLysS at 200 uM incubated for 1 hrs and measured after dilution
C2C12 [13] = assay: Cytotoxicity against mouse C2C12 cells assessed as reduction in cell viability at 1 uM measured after 48 hrs by MTT assay; assay type: toxicity, cell-based; conditions: c2c12, 48 h
C2C12 [14] = assay: Induction of glucose uptake in mouse C2C12 cells assessed as increase in 2-NDBG uptake at 25 to 50 uM incubated for 30 mins by flow cytometric analysis; assay type: functional, cell-based; conditions: dose 25-50 µM
C2C12 [15] = assay: Enhancement of […] glucose uptake in mouse C2C12 cells assessed as increase in 2-NDBG uptake at 25 to 50 uM preincubated for 30 mins followed by insulin addition and measure after 30 mins by flow cytometric analysis; assay type: functional, cell-based; conditions: dose 25-50 µM, time 60.0 min
C2C12 [16] = assay: Induction of glucose uptake in mouse C2C12 cells assessed as decrease in glucose concentration in cell culture medium at 25 to 50 uM incubated for 24 hrs by BGSTAR glucometric analysis; assay type: functional, cell-based; conditions: dose 25-50 µM
C2C12 [17] = assay: Induction of Akt phosphorylation in mouse C2C12 cells at 25 uM incubated for 30 mins by Western blot analysis; assay type: cell-based
C2C12 [18] = assay: Induction of Akt phosphorylation in mouse C2C12 cells at 25 uM incubated for 30 mins in presence of insulin by Western blot analysis; assay type: cell-based
Mitochondrial membrane = assay: Induction of mitochondrial membrane potential loss in mouse C2C12 cells at 25 uM incubated for 0.5 to 50 hrs by TMRE probe based flow cytometric analysis; conditions: time 0.5-50 hrs
C2C12 [19] = assay: Effect on mitochondrial mass in mouse C2C12 cells at 25 uM incubated for 72 hrs by Mitotracker green based flow cytometric analysis; assay type: functional, cell-based
C2C12 [20] = assay: Reduction of mitochondrial mass in mouse C2C12 cells at 25 uM incubated for 72 hrs by Mitotracker green based flow cytometric analysis; assay type: functional, cell-based
C2C12 [21] = assay: Induction of mitochondrial uncoupling activity in mouse C2C12 cells assessed as increase in proton leak at 25 uM incubated for 30 mins by Seahorse XF cell mito stress analysis; assay type: functional, cell-based
C2C12 [22] = assay: Induction of mitochondrial uncoupling activity in mouse C2C12 cells assessed as decrease in oxygen-dependent ATP production at 25 uM incubated for 30 mins by Seahorse XF cell mito stress analysis; assay type: functional, cell-based
C2C12 [23] = assay: Induction of mitochondrial uncoupling activity in mouse C2C12 cells assessed as decrease in sparse capacity at 25 uM incubated for 30 mins by Seahorse XF cell mito stress analysis; assay type: functional, cell-based
C2C12 [24] = assay: Induction of mitochondrial uncoupling activity in mouse C2C12 cells assessed as decrease in coupling efficiency at 25 uM incubated for 30 mins by Seahorse XF cell mito stress analysis; assay type: functional, cell-based
C2C12 [25] = assay: Effect on basal respiration rate in mouse C2C12 cells assessed as decrease in coupling efficiency at 25 uM incubated for 30 mins by Seahorse XF cell mito stress analysis; assay type: functional, cell-based
C2C12 [26] = assay: Effect on maximal respiration rate in mouse C2C12 cells assessed as decrease in coupling efficiency at 25 uM incubated for 30 mins by Seahorse XF cell mito stress analysis; assay type: functional, cell-based
C2C12 [27] = assay: Reduction in basal respiration rate in mouse C2C12 cells assessed as decrease in coupling efficiency at 25 uM incubated for 24 hrs by Seahorse XF cell mito stress analysis; assay type: functional, cell-based
C2C12 [28] = assay: Reduction in oxygen-dependent ATP production in mouse C2C12 cells assessed as decrease in coupling efficiency at 25 uM incubated for 24 hrs by Seahorse XF cell mito stress analysis; assay type: functional, cell-based
C2C12 [29] = assay: Reduction in proton leak in mouse C2C12 cells assessed as decrease in coupling efficiency at 25 uM incubated for 24 hrs by Seahorse XF cell mito stress analysis; assay type: functional, cell-based
C2C12 [30] = assay: Reduction in maximal respiration rate in mouse C2C12 cells assessed as decrease in coupling efficiency at 25 uM incubated for 24 hrs by Seahorse XF cell mito stress analysis; assay type: functional, cell-based
C2C12 [31] = assay: Effect on sparse capacity in mouse C2C12 cells assessed as decrease in coupling efficiency at 25 uM incubated for 24 hrs by Seahorse XF cell mito stress analysis; assay type: functional, cell-based
C2C12 [32] = assay: Effect on couple efficiency in mouse C2C12 cells assessed as decrease in coupling efficiency at 25 uM incubated for 24 hrs by Seahorse XF cell mito stress analysis; assay type: functional, cell-based
Rattus norvegicus [33] = species on record: Rattus norvegicus; assay: Selectivity index, ratio of IC50 for rat kidney ALR1 to IC50 for rat lens ALR2
[34] = Selectivity index, ratio of IC50 for TCPTP (unknown origin) extracted from Escherichia coli BL21 TB1 using p-nitro-phenyl phosphate as substrate to IC50 for human PTP1B extracted from Escherichia coli BL21 TB1 using p-nitro-phenyl phosphate as substrate

## CN(C)C(=N)NC(=N)N
C2C12 [1]
  Activity: inactive

## CC(/C=C1\SC(=S)N(CC(=O)O)C1=O)=C\c1ccccc1
[2]
  IC50: 2.14 µM
[3]
  IC50: 2.37 µM

## O=C(O)CN1C(=O)S/C(=C\c2cn(Cc3ccc(Cl)cc3Cl)c3ccccc23)C1=O
[4]
  IC50: 0.289 µM
[3]
  IC50: > 15 µM
Rattus norvegicus [5]
  Ratio IC50: > 52
[6]
  inhibition: 28.1%
[7]
  inhibition: 62.8%
[8]
  IC50: 21.3 µM
[9]
  IC50: 37.8 µM
Homo sapiens
  Ratio IC50: 1.8
[10]
  inhibition: > 92%
[11]
  inhibition: > 70%
[12]
  inhibition: Active
C2C12 [13]
  Activity: Toxic
C2C12 [14]
  Activity: Active
C2C12 [15]
  Activity: inactive
C2C12 [16]
  Activity: Active
C2C12 [17]
  Activity: Not active; Compound Acted Neither As An Insulin Mimetic Nor A Sensitizing Agent
C2C12 [18]
  Activity: Not active; Compound Acted Neither As An Insulin Mimetic Nor A Sensitizing Agent
Mitochondrial membrane
  Activity: Active; Compound Targets Mitochondria As An Uncoupling Agent
C2C12 [19]
  Activity: inactive
C2C12 [20]
  Activity: Active
C2C12 [21]
  Activity: Active
C2C12 [22]
  Activity: Active
C2C12 [23]
  Activity: Active
C2C12 [24]
  Activity: Active
C2C12 [25]
  Activity: inactive
C2C12 [26]
  Activity: inactive
C2C12 [27]
  Activity: Active
C2C12 [28]
  Activity: Active
C2C12 [29]
  Activity: Active
C2C12 [30]
  Activity: Active
C2C12 [31]
  Activity: inactive
C2C12 [32]
  Activity: inactive

## Cc1ccc(CN2C(=O)C(C(C#N)C(=O)O)c3cc(F)ccc32)cc1 (stereo not given)
Rattus norvegicus [33]
  Ratio IC50: 16

## O=c1c(O)c(-c2ccc(O)cc2O)oc2cc(O)cc(O)c12
[6]
  inhibition: 34.5%
[7]
  inhibition: 95.2%
[34]
  Ratio IC50: 1.3

## O=C(O)CN1C(=O)S/C(=C\c2cn(Cc3ccc(F)cc3)c3ccccc23)C1=O
[4]
  IC50: 0.018 µM
[3]
  IC50: 14.2 µM
Rattus norvegicus [5]
  Ratio IC50: 787
[6]
  inhibition: 0%
[7]
  inhibition: 90.8%
[10]
  inhibition: > 92%
[11]
  inhibition: > 70%

## O=C(O)CN1C(=O)S/C(=C\c2cn(Cc3ccc(Br)cc3F)c3ccccc23)C1=O
[4]
  IC50: 0.187 µM
[3]
  IC50: > 15 µM
Rattus norvegicus [5]
  Ratio IC50: > 80
[6]
  inhibition: 0%
[7]
  inhibition: 4.4%
[8]
  IC50: > 50 µM
[10]
  inhibition: > 92%
[11]
  inhibition: > 70%

## O=C(O)CN1C(=O)S/C(=C\c2cn(Cc3ccccc3)c3ccccc23)C1=O
[4]
  IC50: 0.026 µM
[3]
  IC50: 7.54 µM
Rattus norvegicus [5]
  Ratio IC50: 290
[6]
  inhibition: 18.3%
[7]
  inhibition: 49.6%
[8]
  IC50: 42.8 µM
[9]
  IC50: 47.1 µM
Homo sapiens
  Ratio IC50: 1.1
[10]
  inhibition: > 92%
[11]
  inhibition: > 70%
[12]
  inhibition: Active
